Results on 2 molecules are retold here after patent US11517628B2, “Particles for spatiotemporal release of agents” (Yale University, priority 2018, dated 2022).

For the experiment, the system named is bone marrow-derived dendritic cells (BMDCs). Description: BMDC surface marker expression by FACS. The format is cell-based, mouse. The procedure: Bone marrow-derived dendritic cells (BMDCs) were generated as described by Zanoni et al. Generation of mouse bone marrow-derived dendritic cells (BM-DCs) (2009). Briefly, bone marrow progenitor cells were isolated from the femur of C57BL/6J mouse and cultured with media containing 20 ng/ml of GM-CSF. Cells were replenished with fresh media after 5 days of culture and collected after 48 hours of media replenishment. Naïve CD4 T cells and T cells were collected from OT-II splenocytes by using naïve CD4 T cell or CD3 T cell isolation kit (STEMCELL Technologies), respectively.
When ready for flow cytometry (FACS) analysis, cells were transferred to a 96-well U-bottom plate and spun at 500 g for 5 minutes. […]
FACS was performed by either LSR-II (Becton Dickinson) or Attune NxT flow cytometer. […] All FACS data was analyzed on FlowJo software (Tree Star Inc., Ashland, Oreg.).
DCs are one of the best antigen presenting cells that express costimulatory molecules and present antigens, which are modulated by mTOR signaling and antigen processing, respectively. […] DCs from the bone marrow (BMDCs) were harvested and treated with 100 ng/ml of free RAPA or 2 μg/ml of free OVA for either 72 hours or for 24 hours and analyzed by FACS. In all following experiments, BMDCs were gated on CD11c+, live cells, and surface markers of BMDCs were analyzed by flow cytometry. […]

Turning to `CO[C@H]1C[C@@H]2CC[C@@H](C)[C@@](O)(O2)C(=O)C(=O)N2CCCC[C@H]2C(=O)O[C@H]([C@H](C)C[C@@H]2CC[C@@H](O)[C@H](OC)C2)CC(=O)[C@H](C)/C=C(\C)[C@@H](O)[C@@H](OC)C(=O)[C@H](C)C[C@H](C)/C=C/C=C/C=C/1C` [free RAPA, Rapamycin], the “Expression of surface markers PD-L1, CD80, CD86, and MHC II” value (free RAPA 100 ng/ml, 72 hours compared to 24 hours) is listed as “diminished expression of surface markers”.

B1: free OVA: Ovalbumin, the model antigen, given soluble (protein, UniProt P01012 2-386, looked up)
Ovalbumin: GSIGAASMEFCFDVFKELKVHHANENIFYCPIAIMSALAMVYLGAKDSTRTQINKVVRFDKLPGFGDSIEAQCGTSVNVHSSLRDILNQITKPNDVYSFSLASRLYAEERYPILPEYLQCVKELYRGGLEPINFQTAADQARELINSWVESQTNGIIRNVLQPSSVDSQTAMVLVNAIVFKGLWEKAFKDEDTQAMPFRVTEQESKPVQMMYQIGLFRVASMASEKMKILELPFASGTMSMLVLLPDEVSGLEQLESIINFEKLTEWTSSNVMEERKIKVYLPRMKMEEKYNLTSVLMAMGITDVFSSSANLSGISSAESLKISQAVHAAHAEINEAGREVVGSAEAGVDAASVSEEFRADHPFLFCIKHIATNAVLFFGRCVSP
In the case of B1, under “free OVA 2 μg/ml, 72 hours vs 24 hours”, the “Expression of surface markers PD-L1, CD80, CD86, and MHC II” value is recorded as “no differences were observed”.
